Test results: PubChem BioAssay AID256 (DTP/NCI, 2004)
“And” between values parts separate entries of the source, which are not always exact repeats. Equal entries are not always repeated. Toxic doses and inconclusive results are not listed.

System: CD2F1 mice, L1210 leukemia ip, survival T/C
Assay: NCI In Vivo Anticancer Drug Screen. Data for tumor model L1210 Leukemia (intraperitoneal) in CD2F1 (CDF1) mice
Conditions: higher = longer survival
Procedure, shortened: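 Mice carrying a transplanted tumor received test compound or vehicle alone. The value is the measurement in the treated group divided by that in the vehicle-treated control group.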

[1] = endpoint: mean survival time, dose: 12.5 mg/kg/injection, schedule: Q01DX009 (ip), vehicle: saline
[2] = endpoint: mean survival time, dose: 100.0 mg/kg/injection, schedule: Q01DX009 (ip), vehicle: saline
[3] = endpoint: mean survival time, dose: 100.0 mg/kg/injection, schedule: Q04DX002 (ip), vehicle: saline with Tween-80
[4] = endpoint: mean survival time, dose: 200.0 mg/kg/injection, schedule: Q04DX002 (ip), vehicle: saline with Tween-80
[5] = endpoint: mean survival time, dose: 400.0 mg/kg/injection, schedule: Q04DX002 (ip), vehicle: saline with Tween-80
[6] = endpoint: mean survival time, dose: 50.0 mg/kg/injection, schedule: Q01DX009 (ip), vehicle: saline with Tween-80
[7] = endpoint: mean survival time, dose: 100.0 mg/kg/injection, schedule: Q01DX009 (ip), vehicle: saline with Tween-80
[8] = endpoint: mean survival time, dose: 100.0 mg/kg/injection, schedule: Q04DX003 (ip), vehicle: saline
[9] = endpoint: mean survival time, dose: 200.0 mg/kg/injection, schedule: Q04DX003 (ip), vehicle: saline
[10] = endpoint: mean survival time, dose: 400.0 mg/kg/injection, schedule: Q04DX003 (ip), vehicle: saline
[11] = endpoint: mean survival time, dose: 200.0 mg/kg/injection, schedule: Q01DX009 (ip), vehicle: saline with Tween-80
[12] = endpoint: mean survival time, dose: 400.0 mg/kg/injection, schedule: Q01DX009 (ip), vehicle: saline with Tween-80
[13] = endpoint: mean survival time, dose: 100.0 mg/kg/injection, schedule: Q01DX001 (ip), vehicle: saline
[14] = endpoint: mean survival time, dose: 200.0 mg/kg/injection, schedule: Q01DX001 (ip), vehicle: saline
[15] = endpoint: mean survival time, dose: 400.0 mg/kg/injection, schedule: Q01DX001 (ip), vehicle: saline
[16] = endpoint: mean survival time, dose: 100.0 mg/kg/injection, schedule: Q01DX001 (ip), vehicle: saline with Tween-80
[17] = endpoint: mean survival time, dose: 200.0 mg/kg/injection, schedule: Q01DX001 (ip), vehicle: saline with Tween-80

CC(=O)OCC1OC(N2CN=C(N)NC2=O)C(OC(C)=O)C1OC(C)=O (stereo unspecified)
T/C (endpoint: mean survival time, dose: 3.12 mg/kg/injection, schedule: Q01DX009 (ip), vehicle: saline): 109 % of control
T/C (endpoint: mean survival time, dose: 6.25 mg/kg/injection, schedule: Q01DX009 (ip), vehicle: saline): 108 % of control
T/C [1]: 115 % of control and 110 % of control
T/C (endpoint: mean survival time, dose: 50.0 mg/kg/injection, schedule: Q01DX009 (ip), vehicle: saline): 178 % of control and 183 % of control
T/C [2]: 203 % of control and 208 % of control

COc1ccc(C(C)O)cc1 (stereo unspecified)
T/C [3]: 104 % of control
T/C [4]: 93 % of control
T/C [5]: 97 % of control

O=C1CCC/C1=C/c1ccco1
T/C (endpoint: mean survival time, dose: 25.0 mg/kg/injection, schedule: Q01DX009 (ip), vehicle: saline with Tween-80): 93 % of control
T/C [6]: 95 % of control
T/C [7]: 86 % of control and 90 % of control

C=CS(=O)(=O)c1ccc([N+](=O)[O-])cc1
T/C (endpoint: mean survival time, dose: 25.0 mg/kg/injection, schedule: Q04DX002 (ip), vehicle: saline with Tween-80): 88 % of control

CCOC(=O)CCN(C)C
T/C [8]: 97 % of control
T/C [9]: 100 % of control
T/C [10]: 100 % of control

CC(C)c1nc(-c2ccccc2)c(-c2ccccc2)[nH]1
T/C [7]: 103 % of control
T/C [11]: 94 % of control
T/C [12]: 100 % of control

COC(=O)C1(C)CCCC2(C)c3cc(OC)ccc3C=CC12 (stereo unspecified)
T/C [7]: 104 % of control
T/C [11]: 106 % of control
T/C [12]: 103 % of control

c1ccc(Sc2cccc3c(-c4ccccc4)c4cccc5c4c(c23)C[S+]5c2ccccc2)cc1 (stereo unspecified)
T/C (endpoint: mean survival time, dose: 3.13 mg/kg/injection, schedule: Q04DX003 (ip), vehicle: saline with Tween-80): 96 % of control
T/C (endpoint: mean survival time, dose: 6.25 mg/kg/injection, schedule: Q04DX003 (ip), vehicle: saline with Tween-80): 96 % of control
T/C (endpoint: mean survival time, dose: 12.5 mg/kg/injection, schedule: Q04DX003 (ip), vehicle: saline with Tween-80): 93 % of control

CCN(C(=O)Nc1cccc(Cl)c1)c1ccccc1C
T/C [7]: 91 % of control
T/C [11]: 97 % of control
T/C [12]: 97 % of control

CC(C)C1CCC(C)C(C(O)(C(F)(F)F)C(F)(F)F)C1O (stereo unspecified)
T/C [13]: 101 % of control
T/C [3]: 98 % of control
T/C [14]: 101 % of control
T/C [4]: 98 % of control
T/C [15]: 97 % of control
T/C [5]: 94 % of control

N#CC(=C1CCN(Cc2ccccc2)CC1)c1ccccc1
T/C (endpoint: median survival time, dose: 50.0 mg/kg/injection, schedule: Q04DX002 (ip), vehicle: saline with Tween-80): 100 % of control
T/C (endpoint: median survival time, dose: 100.0 mg/kg/injection, schedule: Q04DX002 (ip), vehicle: saline with Tween-80): 100 % of control
T/C (endpoint: median survival time, dose: 200.0 mg/kg/injection, schedule: Q04DX002 (ip), vehicle: saline with Tween-80): 111 % of control

Cn1c(=O)c2[nH]c(-c3ccc(Cl)c(Cl)c3)nc2n(C)c1=O
T/C (endpoint: mean survival time, dose: 12.5 mg/kg/injection, schedule: Q01DX005 (ip), vehicle: other): 101 % of control
T/C (endpoint: mean survival time, dose: 25.0 mg/kg/injection, schedule: Q01DX005 (ip), vehicle: other): 92 % of control
T/C (endpoint: mean survival time, dose: 50.0 mg/kg/injection, schedule: Q01DX005 (ip), vehicle: other): 92 % of control
T/C (endpoint: mean survival time, dose: 100.0 mg/kg/injection, schedule: Q01DX005 (ip), vehicle: other): 87 % of control
T/C (endpoint: mean survival time, dose: 200.0 mg/kg/injection, schedule: Q01DX005 (ip), vehicle: other): 89 % of control

CC1CC(C)(C)N=C(CCNCc2ccccc2)O1 (stereo unspecified)
T/C (endpoint: mean survival time, dose: 6.25 mg/kg/injection, schedule: Q01DX001 (ip), vehicle: saline): 95 % of control
T/C (endpoint: mean survival time, dose: 12.5 mg/kg/injection, schedule: Q01DX001 (ip), vehicle: saline): 110 % of control
T/C (endpoint: mean survival time, dose: 25.0 mg/kg/injection, schedule: Q01DX001 (ip), vehicle: saline): 103 % of control

C/C(=C/Cc1c(O)c(C)c2c(c1O)C(=O)OC2)CCC(=O)NCCc1ccccc1
T/C [3]: 87 % of control
T/C [4]: 87 % of control
T/C [5]: 96 % of control

CCN(CCNC(=O)Nc1ccccc1OC)c1ccccc1
T/C [3]: 98 % of control
T/C [4]: 94 % of control
T/C [5]: 94 % of control

COc1cc(-c2ccc(N=Nc3c(O)ccc4ccccc34)c(OC)c2)ccc1N=Nc1ccc2c(S(=O)(=O)O)cc(S(=O)(=O)O)c(N)c2c1O
T/C (endpoint: mean survival time, dose: 50.0 mg/kg/injection, schedule: Q01DX001 (ip), vehicle: saline): 91 % of control
T/C [13]: 94 % of control
T/C [8]: 94 % of control
T/C [14]: 88 % of control
T/C [9]: 95 % of control
T/C [15]: 94 % of control

CCN(CC)C(=S)[S][Pb]([CH2]C)([CH2]C)[CH2]C
T/C (endpoint: mean survival time, dose: 6.25 mg/kg/injection, schedule: Q01DX009 (ip), vehicle: saline with Tween-80): 96 % of control

O=C(O)CCOc1cc(F)c(F)cc1F
T/C [3]: 101 % of control
T/C [4]: 90 % of control
T/C [5]: 97 % of control

COC[C@H]1OC(=O)c2coc3c2[C@@]1(C)C1=C(C3=O)[C@@H]2CCC(=O)[C@@]2(C)C[C@H]1OC(C)=O
T/C (endpoint: mean survival time, dose: 0.16 mg/kg/injection, schedule: Q01DX009 (ip), vehicle: saline): 102 % of control
T/C (endpoint: mean survival time, dose: 0.31 mg/kg/injection, schedule: Q01DX009 (ip), vehicle: saline): 98 % of control
T/C (endpoint: mean survival time, dose: 0.63 mg/kg/injection, schedule: Q01DX009 (ip), vehicle: saline): 102 % of control
T/C (endpoint: mean survival time, dose: 1.25 mg/kg/injection, schedule: Q01DX009 (ip), vehicle: saline with Tween-80): 86 % of control
T/C (endpoint: mean survival time, dose: 1.25 mg/kg/injection, schedule: Q01DX009 (ip), vehicle: saline): 110 % of control

O=Cc1cc(Br)c(O)c(Br)c1
T/C (endpoint: mean survival time, dose: 50.0 mg/kg/injection, schedule: Q01DX001 (ip), vehicle: Klucel (hydroxypropylcellulose) (HPC)): 97 % of control
T/C (endpoint: mean survival time, dose: 100.0 mg/kg/injection, schedule: Q01DX001 (ip), vehicle: Klucel (hydroxypropylcellulose) (HPC)): 93 % of control
T/C (endpoint: mean survival time, dose: 200.0 mg/kg/injection, schedule: Q01DX001 (ip), vehicle: Klucel (hydroxypropylcellulose) (HPC)): 97 % of control

COc1ccc(C2C3CN(C4CCCCC4)C(=O)C3(O)NN2C)cc1 (stereo unspecified)
T/C [16]: 91 % of control
T/C [17]: 88 % of control
T/C (endpoint: mean survival time, dose: 400.0 mg/kg/injection, schedule: Q01DX001 (ip), vehicle: saline with Tween-80): 91 % of control

CN(CSc1ccc(Cl)cc1)c1ccccc1
T/C [6]: 96 % of control
T/C [7]: 96 % of control
T/C [11]: 96 % of control

O=C1CC2C3C=CC(C12)C1C(=O)OC(=O)C31 (stereo unspecified)
T/C [8]: 107 % of control
T/C [9]: 98 % of control
T/C [10]: 91 % of control

O=c1[nH]ccc(=S)[nH]1
T/C [16]: 97 % of control
T/C [17]: 88 % of control

COC(=O)C1(C(=O)OC)C2C(=O)C3C(C21)C3(C(=O)OC(C)(C)C)C(=O)OC(C)(C)C (stereo unspecified)
T/C [7]: 96 % of control
T/C [11]: 94 % of control
T/C [12]: 93 % of control

CC(=O)C1=C(C)NC(C)=C(C(C)=O)C1c1cccc([N+](=O)[O-])c1
T/C (endpoint: mean survival time, dose: 100.0 mg/kg/injection, schedule: Q04DX003 (ip), vehicle: saline with Tween-80): 94 % of control
T/C (endpoint: mean survival time, dose: 200.0 mg/kg/injection, schedule: Q04DX003 (ip), vehicle: saline with Tween-80): 91 % of control
T/C (endpoint: mean survival time, dose: 400.0 mg/kg/injection, schedule: Q04DX003 (ip), vehicle: saline with Tween-80): 96 % of control

FC(F)(F)c1nc2nc(Cl)c(Cl)nc2[nH]1
T/C (endpoint: mean survival time, dose: 10.0 mg/kg/injection, schedule: Q01DX009 (ip), vehicle: saline with Tween-80): 97 % of control
T/C [1]: 102 % of control
T/C (endpoint: mean survival time, dose: 20.0 mg/kg/injection, schedule: Q01DX009 (ip), vehicle: saline with Tween-80): 106 % of control
T/C (endpoint: mean survival time, dose: 25.0 mg/kg/injection, schedule: Q01DX009 (ip), vehicle: saline): 101 % of control
T/C [2]: 107 % of control
T/C (endpoint: median survival time, dose: 30.0 mg/kg/injection, schedule: Q04DX003 (ip), vehicle: saline with Tween-80): 106 % of control
T/C (endpoint: median survival time, dose: 44.0 mg/kg/injection, schedule: Q04DX003 (ip), vehicle: saline with Tween-80): 106 % of control
T/C (endpoint: median survival time, dose: 66.0 mg/kg/injection, schedule: Q04DX003 (ip), vehicle: saline with Tween-80): 110 % of control

CC(=O)Nc1cccc(OCCOc2ccccc2[N+](=O)[O-])c1
T/C (endpoint: mean survival time, dose: 100.0 mg/kg/injection, schedule: Q04DX002 (ip), vehicle: Klucel (hydroxypropylcellulose) (HPC)): 95 % of control
T/C (endpoint: mean survival time, dose: 200.0 mg/kg/injection, schedule: Q04DX002 (ip), vehicle: Klucel (hydroxypropylcellulose) (HPC)): 107 % of control
T/C (endpoint: mean survival time, dose: 400.0 mg/kg/injection, schedule: Q04DX002 (ip), vehicle: Klucel (hydroxypropylcellulose) (HPC)): 103 % of control
